Reference: US10131652B2, “Pyrimidinyloxy benzene derivatives as herbicides” (E. I. DU PONT DE NEMOURS AND COMPANY, priority 2014, dated 2018)

Columns and labels:
Test in all cases: Test D pre-/postemergence plant response
Assay type in all cases: in vivo
[1] = tested on: lambsquarters (Chenopodium album)
Procedure, shortened: (§1)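 Seeds were planted in a loam and sand blend and sprayed preemergence. In parallel, seedlings grown in peat moss/vermiculite medium were sprayed postemergence at 2 to 18 cm height. Both used a surfactant-containing non-phytotoxic solvent. Greenhouse ratings at 13 to 15 days used a 0–100 control scale.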

[2] = tested on: Italian ryegrass (Lolium multiflorum)
Procedure, shortened: as §1

[3] = tested on: blackgrass (Alopecurus myosuroides)
Procedure, shortened: as §1

[4] = tested on: barnyardgrass (Echinochloa crus-galli)
Procedure, shortened: as §1

[5] = tested on: yellow nutsedge (Cyperus esculentus)
Procedure, shortened: as §1

[6] = tested on: waterhemp (common waterhemp, Amaranthus rudis)
Procedure, shortened: as §1

corn (Zea mays) = tested on: corn (Zea mays)
Procedure, shortened: as §1

[7] = tested on: galium (catchweed bedstraw, Galium aparine)
Procedure, shortened: as §1

[8] = tested on: large (Lg) crabgrass (Digitaria sanguinalis)
Procedure, shortened: as §1

[9] = tested on: velvetleaf (Abutilon theophrasti)
Procedure, shortened: as §1

[10] = tested on: pigweed (Amaranthus retroflexus)
Procedure, shortened: as §1

soybean (Glycine max) = tested on: soybean (Glycine max)
Procedure, shortened: as §1

[11] = tested on: winter wheat (Triticum aestivum)
Procedure, shortened: as §1

[12] = tested on: johnsongrass (Sorghum halepense)
Procedure, shortened: as §1

[13] = tested on: morningglory (Ipomoea coccinea)
Procedure, shortened: as §1

[14] = tested on: giant foxtail (Setaria faberii)
Procedure, shortened: as §1

[15] = tested on: oilseed rape (Brassica napus)
Procedure, shortened: as §1

[16] = tested on: ragweed (common ragweed, Ambrosia elatior)
Procedure, shortened: as §1

[17] = Postemergence, 31 g ai/ha, scale 0 to 100 (0 no effect, 100 complete control)
[18] = Postemergence, 62 g ai/ha, scale 0 to 100, 0 no effect, 100 complete control
[19] = Postemergence, 125 g ai/ha, scale 0 to 100, 0 no effect, 100 complete control
[20] = Preemergence, 16 g ai/ha, scale 0 to 100 (0 no effect, 100 complete control)
[21] = Preemergence, 31 g ai/ha, scale 0 to 100 (0 no effect, 100 complete control)
[22] = Preemergence, 62 g ai/ha, scale 0 to 100 (0 no effect, 100 complete control)
[23] = Postemergence, 16 g ai/ha, scale 0 to 100 (0 no effect, 100 complete control)

FC(F)Oc1cccc(Oc2ncc(Cl)cn2)c1-c1cc(C(F)F)on1 [Compound 131]
50: Plant response rating, Soybean (soybean (Glycine max); [22]) | Plant response rating, Oilseed Rape [15, 21]
0: Plant response rating, Ryegrass, Italian [2, 20] | Nutsedge, Yellow plant response rating [5, 17] | Plant response rating, Nutsedge, Yellow [5, 20] | Plant response rating, Corn (corn (Zea mays); [20]) | Wheat plant response rating [11, 17] | Plant response rating, Wheat [11, 18] | Plant response rating, Wheat [11, 19] | Plant response rating, Wheat [11, 20] | Plant response rating, Wheat [11, 21] | Plant response rating, Wheat [11, 22] | Plant response rating, Johnsongrass [12, 20] | Plant response rating, Morningglory [13, 20] | Plant response rating, Ragweed [16, 20] | Plant response rating, Ragweed [16, 21] | Plant response rating, Ragweed [16, 22]
98: Lambsquarters plant response rating [1, 17] | Plant response rating, Lambsquarters [1, 18] | Plant response rating (scale 0 to 100), Lambsquarters ([1]; Preemergence, 125 g ai/ha) | Plant response rating, Waterhemp [6, 19] | Plant response rating, Crabgrass, Large [8, 20] | Plant response rating (scale 0 to 100), Velvetleaf ([9]; Preemergence, 125 g ai/ha) | Pigweed plant response rating [10, 17] | Plant response rating, Pigweed [10, 18]
90: Plant response rating (scale 0 to 100), Ryegrass, Italian ([2]; Preemergence, 125 g ai/ha) | Plant response rating, Blackgrass [3, 22] | Waterhemp plant response rating [6, 17] | Plant response rating, Waterhemp [6, 18] | Plant response rating (scale 0 to 100), Galium ([7]; Preemergence, 125 g ai/ha) | Plant response rating, Galium [7, 22]
60: Plant response rating, Corn (corn (Zea mays); [22])
80: Plant response rating, Lambsquarters [1, 21] | Plant response rating, Blackgrass [3, 21] | Plant response rating, Velvetleaf [9, 18] | Plant response rating, Velvetleaf [9, 22] | Plant response rating, Johnsongrass [12, 22] | Plant response rating, Foxtail, Giant [14, 20] | Plant response rating, Oilseed Rape [15, 18]
10: Barnyardgrass plant response rating [4, 23] | Barnyardgrass plant response rating [4, 17] | Plant response rating, Barnyardgrass [4, 18] | Plant response rating, Nutsedge, Yellow [5, 19] | Plant response rating, Corn (corn (Zea mays); [18]) | Plant response rating, Corn (corn (Zea mays); [21]) | Plant response rating, Crabgrass, Large [8, 18] | Plant response rating, Soybean (soybean (Glycine max); [21]) | Foxtail, Giant plant response rating [14, 23] | Foxtail, Giant plant response rating [14, 17] | Plant response rating, Oilseed Rape [15, 20]
75: Plant response rating, Lambsquarters [1, 20] | Plant response rating, Barnyardgrass [4, 21] | Plant response rating, Soybean (soybean (Glycine max); [18]) | Morningglory plant response rating [13, 17] | Plant response rating, Morningglory [13, 18] | Plant response rating, Ragweed [16, 19]
30: Plant response rating, Blackgrass [3, 19] | Plant response rating, Barnyardgrass [4, 20] | Plant response rating, Galium [7, 21] | Plant response rating, Johnsongrass [12, 21]
15: Soybean plant response rating (soybean (Glycine max); [17]) | Plant response rating, Foxtail, Giant [14, 18] | Plant response rating, Foxtail, Giant [14, 19]
65: Plant response rating (scale 0 to 100), Corn (corn (Zea mays); Preemergence, 125 g ai/ha) | Velvetleaf plant response rating [9, 17] | Plant response rating, Velvetleaf [9, 21] | Plant response rating, Soybean (soybean (Glycine max); [19]) | Plant response rating, Ragweed [16, 18]
35: Plant response rating, Ryegrass, Italian [2, 22] | Plant response rating, Morningglory [13, 22]
85: Plant response rating, Lambsquarters [1, 22] | Plant response rating, Barnyardgrass [4, 22] | Galium plant response rating [7, 17] | Plant response rating, Velvetleaf [9, 19] | Plant response rating (scale 0 to 100), Soybean (soybean (Glycine max); Preemergence, 125 g ai/ha) | Plant response rating (scale 0 to 100), Johnsongrass ([12]; Preemergence, 125 g ai/ha) | Plant response rating (scale 0 to 100), Morningglory ([13]; Preemergence, 125 g ai/ha) | Plant response rating, Oilseed Rape [15, 19] | Plant response rating, Oilseed Rape [15, 22]
95: Plant response rating (scale 0 to 100), Blackgrass ([3]; Preemergence, 125 g ai/ha) | Plant response rating, Galium [7, 18] | Plant response rating, Galium [7, 19] | Plant response rating, Galium [7, 20] | Plant response rating, Morningglory [13, 19] | Plant response rating (scale 0 to 100), Oilseed Rape ([15]; Preemergence, 125 g ai/ha)
5: Ryegrass, Italian plant response rating [2, 17] | Plant response rating, Ryegrass, Italian [2, 18] | Blackgrass plant response rating [3, 23] | Blackgrass plant response rating [3, 17] | Plant response rating, Blackgrass [3, 18] | Plant response rating, Blackgrass [3, 20] | Plant response rating, Nutsedge, Yellow [5, 18] | Plant response rating, Nutsedge, Yellow [5, 21] | Plant response rating, Nutsedge, Yellow [5, 22] | Corn plant response rating (corn (Zea mays); [23]) | Corn plant response rating (corn (Zea mays); [17]) | Crabgrass, Large plant response rating [8, 23] | Crabgrass, Large plant response rating [8, 17] | Plant response rating, Soybean (soybean (Glycine max); [20]) | Plant response rating (scale 0 to 100), Wheat ([11]; Preemergence, 125 g ai/ha) | Johnsongrass plant response rating [12, 17]
45: Plant response rating, Johnsongrass [12, 19] | Oilseed Rape plant response rating [15, 17] | Ragweed plant response rating [16, 17]
25: Plant response rating, Ryegrass, Italian [2, 19] | Plant response rating, Corn (corn (Zea mays); [19]) | Plant response rating, Johnsongrass [12, 18] | Plant response rating (scale 0 to 100), Ragweed ([16]; Preemergence, 125 g ai/ha)
70: Plant response rating (scale 0 to 100), Nutsedge, Yellow ([5]; Preemergence, 125 g ai/ha)
100: Plant response rating, Lambsquarters [1, 19] | Plant response rating (scale 0 to 100), Barnyardgrass ([4]; Preemergence, 125 g ai/ha) | Plant response rating (scale 0 to 100), Waterhemp ([6]; Preemergence, 125 g ai/ha) | Plant response rating, Waterhemp [6, 20] | Plant response rating, Waterhemp [6, 21] | Plant response rating, Waterhemp [6, 22] | Plant response rating (scale 0 to 100), Crabgrass, Large ([8]; Preemergence, 125 g ai/ha) | Plant response rating, Crabgrass, Large [8, 21] | Plant response rating, Crabgrass, Large [8, 22] | Plant response rating, Pigweed [10, 19] | Plant response rating (scale 0 to 100), Pigweed ([10]; Preemergence, 125 g ai/ha) | Plant response rating, Pigweed [10, 20] | Plant response rating, Pigweed [10, 21] | Plant response rating, Pigweed [10, 22] | Plant response rating (scale 0 to 100), Foxtail, Giant ([14]; Preemergence, 125 g ai/ha) | Plant response rating, Foxtail, Giant [14, 21] | Plant response rating, Foxtail, Giant [14, 22]
40: Plant response rating, Morningglory [13, 21]
20: Plant response rating, Ryegrass, Italian [2, 21] | Plant response rating, Barnyardgrass [4, 19] | Plant response rating, Crabgrass, Large [8, 19] | Plant response rating, Velvetleaf [9, 20]
